Test results: patent US20260232640A1, “COMPOSITIONS AND METHODS FOR TREATING SPINAL MUSCULAR ATROPHY” (NMD Pharma A/S, priority 2023, published 2026)
“Also recorded” adds a separate entry of the source.

Columns and labels:
[1] = system: SMA (delta-7 mouse) animals; test: RotaRod test (latency to fall) in SMA model; format: in vivo; conditions: 20 mg/kg IP; for latency to fall / running test, result in words: before vs 90 min after dosing
Procedure: (§1) The employed model of SMA is a genetic knock-in model of severe SMA (“delta-7 mouse”). This model was developed in The Ohio State University laboratories (Foust et al, 2010). In this study the mice were administered at post-natal day 2 via intracerebroventricular injection 40 μg of morpholino ASOs directed against ISS-N1 to increase full-length SMN protein production from SMN2 to allow the animal to live to about 90 days. Five animals aged 67 days were investigated in a study where 20 mg/kg CIC-1 inhibitor ((S)-2-(4-bromo-2-ethynylphenoxy)propionic acid) in phosphate buffered saline was administered intraperitoneally and subjected to a rotarod test battery 90 minutes after injection (single intervention) and CMAP recording 120 min after injection.
RotaRod (Harward apparatus, MA, USA) were used to explore the physical capabilities of the SMA mouse model in vivo and examined coordination ability of legs and endurance on a horizontal accelerating, rotating rod. The RotaRod test was designed to start at a low revolution rate of 5 rpm of the horizontal roll and accelerate gradually to 45 rpm over 300 seconds (maximal test time). Animals were acclimatized and trained for several weeks prior to intervention, to avoid training bias. […] This was performed prior to dosing, and then 90 min after IP dosing of 20 mg/kg of the CIC-1inhibitor.

[2] = system: SMA (delta-7 mouse) animals; test: Compound Muscle Action Potentials (CMAP) decrement, repeated sciatic nerve stimulation (EMG); format: in vivo; conditions: for CMAP decrement, result in words: 10 to 50 Hz, before vs after treatment, significant from 20 to 50 Hz only; for CMAP Decrement % (10th/1st Stimulation): 20 mg/kg IP, 120 min after dosing
Procedure: as §1
Compound Muscle Action Potentials (CMAP) measurements were performed as previously described (Arnold et al, 2015). Briefly, the right sciatic nerve was stimulated with a pair of insulated 28-gauge monopolar needles (Teca, Oxford Instruments Medical, NY) placed in proximity to the sciatic nerve in the proximal hind limb. Recording electrodes consisted of a pair of fine ring wire electrodes (Alpine Biomed, Skovlunde, Denmark). The active recording electrode was placed distal to the knee joint over the proximal portion of the triceps surae muscle and the reference electrode over the metatarsal region of the foot. A disposable strip electrode (Carefusion, Middleton, WI) was placed on the contralateral hind limb to serve as the ground electrode. Data collection and analysis was performed using Cadwell Sierra Summit EMG unit (Cadwell laboratories, Kennewick, Washington, USA). Animals were stimulated in trains of 10 pulses of 50 μs at supramaximal voltage at 10, 20, 30, 40 and 50 Hz, with 10 seconds between stimulation trains.
This was performed prior to dosing, and then 120 min after IP dosing of 20 mg/kg of the CIC-1inhibitor. The relative amplitude from the 10th to the 1st stimulation is denoted as decrement, and a larger negative number designates a larger deficit/decrement, indicating a larger transmission failure from nerve to muscle.

[3] = system: SMA (delta-7 mouse) animals; test: Tolerability after intraperitoneal injection in SMA model; format: in vivo; conditions: 20 mg/kg intraperitoneally, five animals
Procedure: as §1

[4] = Tablet dissolution (USP2 paddles, HPLC); format: physicochemical; conditions: immediate release tablets; USP2 paddles 75 RPM, 900 ml dissolution media pH 6.8, 37° C.; after a maximum of 60 minutes
Procedure: Tablet dissolution was determined as follows.
Dissolution Media pH 6.8 was prepared by dissolving 27.3 g Na2HPO4·2H2O and 4.9 g Citric Acid in 1 L Milli-Q water. The pH was measured and adjusted if necessary to pH 6.8.
900 mL of dissolution media pH 6.8 was accurately transferred into each dissolution vessel. The apparatus was assembled, and the dissolution media was heated to 37° C.±0.5° C. The T=0 point was extracted from each vessel prior to dropping the tablets into the dissolution vessels. One tablet was gently dropped into each dissolution vessel, and rotation of the paddle was immediately started. Samples were taken that the sample extraction timepoints and analysed using the HPLC method.

[5] = Phase I clinical trial Part A, single dose pharmacokinetics in plasma; format: in vivo, human
Procedure: • Collect blood (3 mL recommended) onto wet ice (K2EDTA tubes) • Immediately cool blood on crushed wet ice for maximum of 30 minutes • Harvest plasma as quickly as possible using refrigerated centrifuge by centrifuging at 2000 g for 10 minutes at 4° C. • Keep plasma on wet ice and immediately stabilise with 1:1 (v/v) addition of Water: Orthophosphoric Acid (100:2 v/v) prepared using ≥85% orthophosphoric acid and deionised water (e.g. 750 μL plasma+750 μL stabiliser). • Mix sample thoroughly. • Keep the stabilised plasma on wet ice during subsequent steps. • Divide the stabilised plasma into 5×250 μL aliquots in plastic cryotubes. • Store aliquots at nominal −70° C./−80° C. promptly.
• 1. Thaw frozen calibration standards, QC samples, blank matrix and study samples on wet ice. • 2. Vortex-mix all samples thoroughly. • 3. On wet ice aliquot 150 μL of calibration standards, QC samples, study samples, and blanks into a 2 mL 96-well plate. For the reagent blank add the same volume of Water. • 4. On wet ice add 25 μL of Methanol:Water (50:50) to wells containing blanks and the same volume of ISTD intermediate solution to all other wells. • 5. On wet ice add 125 μL of Water to each well. […] Condition SPE plate with 250 μL of Water. • 9. Load 250 μL of the sample onto the SPE plate (aspirate from the rim of the cone to avoid any debris collected at the bottom of the well). […]

[6] = system: healthy volunteers; test: Phase I clinical trial Part A, tolerability/safety (adverse events); format: in vivo, human

C#Cc1cc(Br)ccc1O[C@@H](C)C(=O)O [CIC-1 inhibitor, (S)-2-(4-bromo-2-ethynylphenoxy)propionic acid]
Time for remaining on rotor rod ([1]; 90 min after dosing, delta-7 mice aged 67 days, pre-treatment 62.2 ± 40.2): 81 ± 63.2 s
latency to fall / running test, result in words [1]: All animals were able to stay on the rotating rod longer after treatment; also recorded: performed better in the running test
latency to fall / running test, result in words ([1]; listed as CIC-1inhibitor): All animals were able to stay on the rotating rod longer after treatment
CMAP decrement, result in words [2]: only minimal decrement visible; also recorded: less pronounced in all animals at all frequencies; also recorded: reduced decrement in EMG (RNS) at all tested frequencies
CMAP decrement, result in words ([2]; listed as CIC-1inhibitor): less pronounced in all animals at all frequencies
improvement in decrement ([2]; at 50 Hz, mouse model of SMA): 75%
CMAP Decrement % (10th/1st Stimulation) ([2]; stimulation frequency 10 Hz): −7.0 ± 5.4%
CMAP Decrement % (10th/1st Stimulation) ([2]; stimulation frequency 20 Hz): −8.1 ± 5.1%
CMAP Decrement % (10th/1st Stimulation) ([2]; stimulation frequency 30 Hz): −8.4 ± 6.0%
CMAP Decrement % (10th/1st Stimulation) ([2]; stimulation frequency 40 Hz): −8.9 ± 4.9%
CMAP Decrement % (10th/1st Stimulation) ([2]; stimulation frequency 50 Hz): −7.7 ± 6.5%
adverse reactions to the compound injection [3]: did not exhibit any adverse reactions to the compound injection, nor any signs of muscle stiffness

C[C@H](Oc1ccc(Br)cc1-c1ccon1)C(=O)O [NMD670, (2S)-2-[4-bromo-2-(1,2-oxazol-3-yl)phenoxy]propanoic acid]
NMD670 released from the tablets [4]: Not less than 80%
half-life ([5]; plasma, oral, human, stated in rationale for washout period): ~4 h
T1/2 (mean ± SD, hr) ([5]; single oral dose 100 mg, healthy male subjects): 5.07 ± 0.63 h
adverse event that stopped dose escalation ([6]; 1600 mg, dose level 7, spontaneously and fully resolved within hours): myotonia of moderate intensity observed in one subject
subject discontinuations ([6]; Part A): no subject discontinuations
total number of AEs reported ([6]; Part A, 35 healthy subjects, single doses): 70
intensity of AEs ([6]; except one AE of myotonia (1600 mg) and tooth extraction (unrelated, 50 mg), moderate): Most AEs were mild
dose-related AE ([6]; highest dose levels tested (1200 mg and 1600 mg), single dose): transient myotonia
number of AEs at least possibly drug related ([6]; of 70 AEs, Part A): 47
share of AEs at least possibly drug related ([6]; of 70 AEs, Part A): 67%
serious or severe adverse effects ([6]; single doses 50 to 1600 mg, 35 healthy subjects): No serious or severe adverse effects were reported
